The text below walks through data of ChEMBL document CHEMBL4831492, “Design and synthesis of 2-(2-isonicotinoylhydrazineylidene)propanamides as InhA inhibitors with high antitubercular activity” (Eur J Med Chem, 2021).

In brackets after ≈: the same amount, converted by molar mass.

For data set [1], the system named is Mycobacterium kansasii. Nature of the data set: Antimycobacterial activity against drug resistant Mycobacterium kansasii 6509/96 assessed as minimal inhibitory concentration required for complete inhibition of mycobacterial growth incubated for 21 days. The class given is functional. As to conditions: 6509/96, 504 h, time 21 day.
Data set [2] deals with Mycobacterium kansasii. Nature of the data set: Antimycobacterial activity against drug resistant Mycobacterium kansasii 6509/96 assessed as minimal inhibitory concentration required for complete inhibition of mycobacterial growth incubated for 7 days. The class given is functional. As to conditions: 6509/96, 168 h, time 7 day.
A short description of data set [3]: Selectivity index, ratio of CC50 for cytotoxicity against human HepG2 cells to MIC for antimycobacterial activity against drug susceptible Mycobacterium tuberculosis H37Rv. Type of data set: toxicity, cell-based. As to conditions: read-out: Selectivity Index.
Data set [4] relates to HepG2. Nature of the data set: Cytotoxicity against human HepG2 cells assessed as reduction in cell viability incubated overnight followed by compound washout by MTT assay. The class given is cell-based.
For data set [5], the system named is Mycobacterium kansasii. Nature of the data set: Antimycobacterial activity against drug resistant Mycobacterium kansasii 235/80 assessed as minimal inhibitory concentration required for complete inhibition of mycobacterial growth incubated for 14 days. Particulars: 235/80, 336 h, time 14 day. The class given is functional.
Data set [6] concerns Mycobacterium avium. Nature of the data set: Antimycobacterial activity against drug resistant Mycobacterium avium 330/88 assessed as minimal inhibitory concentration required for complete inhibition of mycobacterial growth incubated for 21 days. The class given is functional. As to conditions: 330/88, 504 h, time 21 day.
The test system of data set [7] is Mycobacterium kansasii. Nature of the data set: Antimycobacterial activity against drug resistant Mycobacterium kansasii 6509/96 assessed as minimal inhibitory concentration required for complete inhibition of mycobacterial growth incubated for 14 days. The class given is functional. As to conditions: 6509/96, 336 h, time 14 day.
The test system of data set [8] is Mycobacterium tuberculosis. Nature of the data set: Antimycobacterial activity against drug susceptible Mycobacterium tuberculosis H37Rv assessed as minimal inhibitory concentration required for complete inhibition of mycobacterial growth incubated for 21 days. Type of data set: functional. Particulars: 504 h, time 21 day.
Data set [9] relates to HepG2. Nature of the data set: Cytostatic activity in human HepG2 cells assessed as reduction in cell viability incubated overnight followed by compound washout and further incubated for 72 hrs in medium containing serum by MTT assay. The class given is functional, cell-based. Particulars: HepG2, 72 h. For orientation: Tetrazolium dyes change colour on reduction, which living cells bring about.

Data set [10] concerns Mycobacterium avium. Nature of the data set: Antimycobacterial activity against drug resistant Mycobacterium avium 330/88 assessed as minimal inhibitory concentration required for complete inhibition of mycobacterial growth incubated for 14 days. As to conditions: 330/88, 336 h, time 14 day. Type of data set: functional.
The test system of data set [11] is Mycobacterium kansasii. Nature of the data set: Antimycobacterial activity against drug resistant Mycobacterium kansasii 235/80 assessed as minimal inhibitory concentration required for complete inhibition of mycobacterial growth incubated for 7 days. Type of data set: functional. Particulars: 235/80, 168 h, time 7 day.
Data set [12] has as its system Mycobacterium kansasii. Nature of the data set: Antimycobacterial activity against drug resistant Mycobacterium kansasii 235/80 assessed as minimal inhibitory concentration required for complete inhibition of mycobacterial growth incubated for 21 days. Type of data set: functional. Particulars: 235/80, 504 h, time 21 day.
The test system of data set [13] is Mycobacterium tuberculosis. Nature of the data set: Antimycobacterial activity against drug susceptible Mycobacterium tuberculosis H37Rv assessed as minimal inhibitory concentration required for complete inhibition of mycobacterial growth incubated for 14 days. As to conditions: 336 h, time 14 day. The class given is functional.
Data set [14] in a line: Selectivity index, ratio of CC50 for cytotoxicity against human HepG2 cells to MIC for antimycobacterial activity against drug susceptible Mycobacterium […]. Type of data set: toxicity, cell-based. As to conditions: read-out: Selectivity Index.

As for `C/C(=N\NC(=O)c1ccncc1)C(=O)Nc1cc(Cl)cc(Cl)c1`, the MIC in the data set with Mycobacterium kansasii [1] is 32 µM (≈ 11.2 µg/mL); in the data set with Mycobacterium kansasii [2], 16 µM (≈ 5.62 µg/mL); in the data set with Mycobacterium kansasii [5], over 250 µM; with Mycobacterium avium [6] it was over 250 µM; with Mycobacterium kansasii [7], 16 µM (≈ 5.62 µg/mL); in [8], 0.25 µM (≈ 0.0878 µg/mL). The MIC in the data set on Mycobacterium avium [10] is over 250 µM; in the data set on Mycobacterium kansasii [11], over 250 µM; in the data set on Mycobacterium kansasii [12] it was over 250 µM; in data set [13] it was at most 0.25 µM. Moreover, the selectivity ratio was over 200 in data set [3] and over 1.56 in data set [14]. In addition, the IC50 with HepG2 [4] and in the data set on HepG2 [9] was over 50 µM throughout.

Turning to `C/C(=N\NC(=O)c1ccncc1)C(=O)Nc1cccc(I)c1`, the MIC with Mycobacterium kansasii [1] was 8 µM (≈ 3.27 µg/mL); with Mycobacterium kansasii [2], 4 µM (≈ 1.63 µg/mL); with Mycobacterium avium [6], over 1000 µM; in the data set on Mycobacterium kansasii [7], 8 µM (≈ 3.27 µg/mL); in [8], 0.5 µM (≈ 0.204 µg/mL); in the data set on Mycobacterium avium [10], over 1000 µM. Further, in data set [13], the minimal inhibitory concentration (MIC) stood at 0.125 µM (≈ 0.051 µg/mL).

With `C/C(=N\NC(=O)c1ccncc1)C(=O)Nc1cccc(C(F)(F)F)c1`, the MIC with Mycobacterium kansasii [1] was 8 µM (≈ 2.8 µg/mL); in the data set on Mycobacterium kansasii [2] it was 2 µM (≈ 0.701 µg/mL); in the data set with Mycobacterium avium [6] it was over 1000 µM; with Mycobacterium kansasii [7], 4 µM (≈ 1.4 µg/mL); in data set [8] it was 0.25 µM (≈ 0.0876 µg/mL); in the data set on Mycobacterium avium [10], over 1000 µM. The MIC in data set [13] was found to be 0.125 µM (≈ 0.0438 µg/mL).

`C/C(=N\NC(=O)c1ccncc1)C(=O)Nc1cc(Cl)c(Cl)c(Cl)c1`: the MIC with Mycobacterium kansasii [1] is 32 µM (≈ 12.3 µg/mL); with Mycobacterium kansasii [2], 16 µM (≈ 6.17 µg/mL); in the data set on Mycobacterium kansasii [5] it was 125 µM (≈ 48.2 µg/mL); in the data set on Mycobacterium avium [6], over 250 µM; with Mycobacterium kansasii [7] it was 16 µM (≈ 6.17 µg/mL); in [8] it was 1 µM (≈ 0.386 µg/mL). Also, the MIC is over 250 µM in the data set with Mycobacterium avium [10], 62.5 µM (≈ 24.1 µg/mL) in the data set on Mycobacterium kansasii [11], 250 µM (≈ 96.4 µg/mL) in the data set with Mycobacterium kansasii [12] and 0.5 µM (≈ 0.193 µg/mL) in data set [13].

Regarding `C/C(=N\NC(=O)c1ccncc1)C(=O)Nc1ccc(Cl)cc1`, the MIC amounted to 16 µM (≈ 5.07 µg/mL) with Mycobacterium kansasii [1]; 4 µM (≈ 1.27 µg/mL) with Mycobacterium kansasii [2]; 16 µM (≈ 5.07 µg/mL) in the data set with Mycobacterium kansasii [5]; 250 µM (≈ 79.2 µg/mL) with Mycobacterium avium [6]; 8 µM (≈ 2.53 µg/mL) in the data set on Mycobacterium kansasii [7]; 0.25 µM (≈ 0.0792 µg/mL) in data set [8]. For the same compound, the MIC was 250 µM (≈ 79.2 µg/mL) in the data set with Mycobacterium avium [10], 16 µM (≈ 5.07 µg/mL) in the data set on Mycobacterium kansasii [11], 16 µM (≈ 5.07 µg/mL) in the data set with Mycobacterium kansasii [12] and 0.25 µM (≈ 0.0792 µg/mL) in [13]. The selectivity ratio is over 200 in [3] and over 3.12 in [14]. Moreover, the IC50 in the data set with HepG2 [4] and in the data set on HepG2 [9] was over 50 µM each time.

As for `C/C(=N\NC(=O)c1ccncc1)C(=O)Nc1ccc(C(F)(F)C(F)(F)C(F)(F)C(F)(F)C(F)(F)C(F)(F)C(F)(F)C(F)(F)F)cc1`, the MIC is over 1000 µM with Mycobacterium kansasii [1]; over 1000 µM with Mycobacterium kansasii [2]; over 1000 µM in the data set with Mycobacterium avium [6]; over 1000 µM in the data set with Mycobacterium kansasii [7]; 0.5 µM (≈ 0.35 µg/mL) in data set [8]; over 1000 µM in the data set on Mycobacterium avium [10]. In [13], the MIC worked out at 0.25 µM (≈ 0.175 µg/mL).

Regarding `NNC(=O)c1ccncc1` [ISONIAZID], the MIC in the data set on Mycobacterium kansasii [1] is 8 µM (≈ 1.1 µg/mL); with Mycobacterium kansasii [2], 4 µM (≈ 0.549 µg/mL); with Mycobacterium kansasii [5], over 250 µM; in the data set on Mycobacterium avium [6], over 250 µM; with Mycobacterium kansasii [7] it was 8 µM (≈ 1.1 µg/mL); in data set [8], 1 µM (≈ 0.137 µg/mL). Besides, the MIC in the data set with Mycobacterium avium [10] was over 250 µM; in the data set on Mycobacterium kansasii [11], over 250 µM; with Mycobacterium kansasii [12], over 250 µM; in data set [13] it was 0.5 µM (≈ 0.0686 µg/mL).

As to `C/C(=N\NC(=O)c1ccncc1)C(=O)Nc1cccc(Br)c1`, the MIC is 8 µM (≈ 2.89 µg/mL) in the data set on Mycobacterium kansasii [1]; 4 µM (≈ 1.44 µg/mL) in the data set on Mycobacterium kansasii [2]; over 1000 µM in the data set with Mycobacterium avium [6]; 8 µM (≈ 2.89 µg/mL) in the data set with Mycobacterium kansasii [7]; 0.125 µM (≈ 0.0451 µg/mL) in [8]; over 1000 µM with Mycobacterium avium [10]. In addition, the MIC in data set [13] was 0.125 µM (≈ 0.0451 µg/mL).

Regarding `C/C(=N\NC(=O)c1ccncc1)C(=O)Nc1ccc(OC(F)F)cc1`, the MIC with Mycobacterium kansasii [1] was 8 µM (≈ 2.79 µg/mL); in the data set with Mycobacterium kansasii [2] it was 2 µM (≈ 0.697 µg/mL); with Mycobacterium avium [6], over 1000 µM; in the data set with Mycobacterium kansasii [7] it was 4 µM (≈ 1.39 µg/mL); in data set [8], 0.5 µM (≈ 0.174 µg/mL); with Mycobacterium avium [10], over 1000 µM. Further, in data set [13], the MIC came out at 0.25 µM (≈ 0.0871 µg/mL).

On to `C/C(=N\NC(=O)c1ccncc1)C(=O)Nc1cc(C(F)(F)F)cc(C(F)(F)F)c1`, for which the MIC with Mycobacterium kansasii [1] was 32 µM (≈ 13.4 µg/mL); with Mycobacterium kansasii [2], 32 µM (≈ 13.4 µg/mL); with Mycobacterium avium [6], over 1000 µM; with Mycobacterium kansasii [7] it was 32 µM (≈ 13.4 µg/mL); in data set [8], 1 µM (≈ 0.418 µg/mL); in the data set on Mycobacterium avium [10], over 1000 µM. In addition, the MIC in data set [13] worked out at 1 µM (≈ 0.418 µg/mL).

By MIC is commonly meant the lowest concentration found to suppress growth. A word on the IC50: it is the concentration that gives 50% inhibition.
